Like-named read-outs stand apart in the source and are kept apart here.
Biological target: recombinant eIF4E (Homo sapiens (Human), UniProt P06730)
Test: Fluorescence polarization competition assay for eIF4E binding potency
Method in brief: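 IC50 derived from fluorescence polarization over an 8-point, 3-fold compound series after 30 min room-temperature equilibration in the dark. Mix: eIF4E 75 nM pre-bound 5 min to 20 nM EDA-m^7GDP-ATTO-550; buffer 20 mM Tris pH 7.5, 100 mM NaCl, 1 mM DTT, 0.02% Tween-20; DMSO 1%.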

[1] = fluorescence polarization competition, 75 nM recombinant eIF4E, 20 nM EDA-m7GDP-ATTO-550, IC50 class, read-out: elF4E FP
[2] = inhibition of eIF4E/EDA-m7GDP-ATTO-550 binding by 50%, Table 4B calculated values, read-out: IC50

Sequence of recombinant eIF4E (P06730 whole entry): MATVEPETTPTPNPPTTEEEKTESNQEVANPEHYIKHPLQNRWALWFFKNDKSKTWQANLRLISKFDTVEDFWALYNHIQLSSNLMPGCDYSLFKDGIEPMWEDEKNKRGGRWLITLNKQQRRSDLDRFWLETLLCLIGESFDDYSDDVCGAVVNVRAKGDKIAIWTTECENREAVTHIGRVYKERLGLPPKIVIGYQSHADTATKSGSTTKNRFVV

Row | SMILES | IC50 [1] [nM] | IC50 [2] [nM]
1 | Cc1cc(-c2cc(Cl)ccc2OCCn2c(C)nc3c(C)ncc(C#N)c3c2=O)c2scc(C(O)(C(F)(F)F)C(F)(F)F)c2n1 [compound 749] | > 1000 | > 100000
2 | Cc1c(C(F)(F)F)cc2nc(C)n(CC#Cc3ccc(Cl)cc3-c3cn(C)c(=O)c4c(C(=O)O)csc34)c(=O)c2c1C#N [compound 754] | < 50 | 17.2
3 | Cc1cc(-c2cc(Cl)ccc2OCCn2c(C)nc3nc(C(F)(F)F)c(C)nc3c2=O)c2scc(C(=O)O)c2n1 [compound 760] | < 50 | 6.44
4 | Cc1cc(-c2cc(Cl)ccc2OCCn2c(C)nc3cc(C(F)(F)F)c(-c4ncccn4)nc3c2=O)c2scc(C(=O)O)c2n1 [compound 765] | < 50 | 9.19
5 | Cc1cc(-c2cc(Cl)ccc2OCCn2c(C)nc3cc(C(F)(F)F)c(-c4ccncn4)nc3c2=O)c2scc(C(=O)O)c2n1 [compound 767] | < 50 | 7.51
6 | Cc1cc(-c2cc(Cl)ccc2OCCn2c(C)nc3cc(C(F)(F)F)c(-c4cncnc4)nc3c2=O)c2scc(C(=O)O)c2n1 [compound 768] | < 50 | 22.4
7 | Cc1cc(-c2cc(Cl)ccc2OCCn2c(C)nc3cc(C(F)(F)F)c(-c4ccnc(C)n4)nc3c2=O)c2scc(C(=O)O)c2n1 [compound 769] | < 50 | 23.9
8 | Cc1nc2cnc(-c3ccncc3)c(C#N)c2c(=O)n1CC#Cc1ccc(Cl)cc1-c1ccnc2c(C(=O)O)csc12 [compound 770] | < 50 | 14
9 | CCc1cccc(-c2c(C(F)(F)F)cc3nc(C)n(CCOc4ccc(Cl)cc4-c4cc(C)nc5c(C(=O)O)csc45)c(=O)c3c2C#N)n1 [compound 776] | < 50 | 36.5
10 | CC(=O)c1nc2c(=O)n(CCOc3ccc(Cl)cc3-c3cc(C)nc4c(C(=O)O)csc34)c(C)nc2cc1C(F)(F)F [compound 780] | < 50 | 9.6
11 | Cc1cc(-c2cc(Cl)ccc2OCCn2c(C)nc3cc(C(F)(F)F)c(C(=O)N(C)C)nc3c2=O)c2scc(C(=O)O)c2n1 [compound 781] | < 50 | 3.12
12 | Cc1cc(-c2cc(Cl)ccc2OCCn2c(C)nc3cc(C(F)(F)F)c(S(C)(=O)=O)nc3c2=O)c2scc(C(=O)O)c2n1 [compound 782] | < 50 | 4.03
13 | C#Cc1nc2c(=O)n(CCOc3ccc(Cl)cc3-c3cc(C)nc4c(C(=O)O)csc34)c(C)nc2cc1C(F)(F)F [compound 783] | < 50 | 14.8
14 | CC#Cc1nc2c(=O)n(CCOc3ccc(Cl)cc3-c3cc(C)nc4c(C(=O)O)csc34)c(C)nc2cc1C(F)(F)F [compound 784] | < 50 | 13.7
15 | Cc1cc(-c2cc(Cl)ccc2OCCn2c(C)nc3cc(C(F)(F)F)c(C#N)nc3c2=O)c2scc(C(=O)O)c2n1 [compound 785] | < 50 | 18.2
16 | Cc1cc(-c2cc(Cl)ccc2OCCn2c(C)nc3cc(C(F)(F)F)c(-c4ccn(C)n4)nc3c2=O)c2scc(C(=O)O)c2n1 [compound 787] | < 50 | 10.9
17 | Cc1cc(-c2cc(Cl)ccc2OCCn2c(C)nc3cc(C(F)(F)F)c(C4CC4)nc3c2=O)c2scc(C(=O)O)c2n1 [compound 795] | < 50 | 12.1
18 | Cc1cc(-c2cc(Cl)ccc2OCCn2c(C)nc3cc(C(F)(F)F)c(N4CC(=O)C4)nc3c2=O)c2scc(C(=O)O)c2n1 [compound 796] | < 50 | 3.27
19 | Cc1cc(-c2cc(Cl)ccc2OCCn2c(C)nc3cc(C(F)(F)F)c(N4CC(O)C4)nc3c2=O)c2scc(C(=O)O)c2n1 [compound 797] | < 50 | 6.79
20 | Cc1cc(-c2cc(Cl)ccc2OCCn2c(C)nc3cc(C(F)(F)F)c(N4CCC(C)CC4)nc3c2=O)c2scc(C(=O)O)c2n1 [compound 800] | < 50 | 32.4
21 | Cc1cc(-c2cc(Cl)ccc2OCCn2c(C)nc3cc(C(F)(F)F)c(N4CCC(C)(C)CC4)nc3c2=O)c2scc(C(=O)O)c2n1 [compound 801] | < 50 | 17
22 | Cc1cc(-c2cc(Cl)ccc2OCCn2c(C)nc3cc(C(F)(F)F)c(N4CCC(F)(F)CC4)nc3c2=O)c2scc(C(=O)O)c2n1 [compound 802] | < 50 | 35.9
23 | Cc1cc(-c2cc(Cl)ccc2OCCn2c(C)nc3cc(C(F)(F)F)c(N4CCC(C(F)(F)F)CC4)nc3c2=O)c2scc(C(=O)O)c2n1 [compound 803] | 50 to 1000 | 161

The next lines start with the values.

Row | IC50 [1] [nM] | IC50 [2] [nM] | SMILES
24 | < 50 | 18.9 | CCc1cc(-c2cc(Cl)ccc2OCCn2c(C)nc3cc(C(F)(F)F)c(-c4ccccn4)c(C#N)c3c2=O)c2scc(C(=O)O)c2n1 [compound 747]
25 | < 50 | 16.3 | Cc1cc(-c2cc(Cl)ccc2OCCn2c(C)nc3cc4c(c(C#N)c3c2=O)CCC4)c2scc(C(=O)O)c2n1 [compound 748]
26 | 50 to 1000 | 69.8 | Cc1cc(-c2cc(Cl)ccc2OCCn2c(C)nc3cc(C(F)(F)F)c(-c4ncccc4F)c(C#N)c3c2=O)c2scc(C(=O)O)c2n1 [compound 751]
27 | < 50 | 27.6 | Cc1cc(-c2cc(Cl)ccc2OCCn2c(C)nc3cc(Cl)c(N4CCC4)c(C#N)c3c2=O)c2scc(C(=O)O)c2n1 [compound 752]
28 | < 50 | 13.8 | Cc1c(C(F)(F)F)cc2nc(C)n(CCOc3ccc(Cl)cc3-c3cn(C)c(=O)c4c(C(=O)O)csc34)c(=O)c2c1C#N [compound 753]
29 | < 50 | 43.2 | Cc1nc2cnc(C3CC3)c(C#N)c2c(=O)n1CCOc1ccc(Cl)cc1-n1cnc2c(C(=O)O)cccc21 [compound 756]
30 | 50 to 1000 | 137 | CSc1c(-c2cc(Cl)ccc2OCCn2c(C)nc3cnc(C4CC4)c(C#N)c3c2=O)ccnc1C(=O)O [compound 757]
31 | < 50 | 13.1 | Cc1cc(-c2cc(Cl)ccc2OCCn2c(C)nc3cc(Cl)c(-c4cccc(C(F)F)n4)c(C#N)c3c2=O)c2scc(C(=O)O)c2n1 [compound 758]
32 | 50 to 1000 | 52.9 | Cc1cc(-c2cc(Cl)ccc2OCCn2c(C)nc3cc(-c4cccnc4)c(C)c(C#N)c3c2=O)c2scc(C(=O)O)c2n1 [compound 759]
33 | < 50 | 33.7 | Cc1ccc(-c2cc(Cl)ccc2OCCn2c(C)nc3cnc(-c4ccncc4)c(C#N)c3c2=O)c2scc(C(=O)O)c12 [compound 762]
34 | < 50 | 5.19 | Cc1cc(-c2ncc3nc(C)n(CCOc4ccc(Cl)cc4-c4ccc(C)c5c(C(=O)O)csc45)c(=O)c3c2C#N)ccn1 [compound 763]
35 | < 50 | 12.8 | Cc1cc(-c2cc(Cl)ccc2OCCn2c(C)nc3cnc(C4CC4)c(C#N)c3c2=O)c2scc(C(=O)O)c2c1C [compound 771]
36 | < 50 | 14.1 | COc1sc2c(-c3cc(Cl)ccc3OCCn3c(C)nc4cnc(C5CC5)c(C#N)c4c3=O)ccnc2c1C(=O)O [compound 772]
37 | < 50 | 10.2 | Cc1nc2cnc(C3CC3)c(C#N)c2c(=O)n1CCOc1ccc(Cl)cc1-c1ccc(Cl)c2c(C(=O)O)csc12 [compound 773]
38 | < 50 | 8.29 | CCc1ccc(-c2c(C(F)(F)F)cc3nc(C)n(CCOc4ccc(Cl)cc4-c4cc(C)nc5c(C(=O)O)csc45)c(=O)c3c2C#N)cn1 [compound 774]
39 | < 50 | 48.3 | Cc1cncc(-c2c(C(F)(F)F)cc3nc(C)n(CCOc4ccc(Cl)cc4-c4cc(C)nc5c(C(=O)O)csc45)c(=O)c3c2C#N)c1 [compound 775]
40 | 50 to 1000 | 53.3 | Cc1cc(-c2cc(Cl)ccc2OCCn2c(C)nc3cc(C(F)(F)F)c(-c4cc(F)ccn4)c(C#N)c3c2=O)c2scc(C(=O)O)c2n1 [compound 777]
41 | < 50 | 0.0702 | Cc1cc(-c2c(F)cc3nc(C)n(CCOc4ccc(Cl)cc4-c4cc(C)nc5c(C(=O)O)csc45)c(=O)c3c2C#N)ccn1 [compound 778]
42 | < 50 | 9.54 | Cc1cc(-c2cc(Cl)ccc2OCCn2c(C)nc3cc(C(F)(F)F)c(-c4ccn(C)n4)c(C#N)c3c2=O)c2scc(C(=O)O)c2n1 [compound 779]
43 | < 50 | 8.96 | Cc1cc(-c2cc(Cl)ccc2OCCn2c(C)nc3cc(C(F)(F)F)c(C(=O)N(C)C)c(C#N)c3c2=O)c2scc(C(=O)O)c2n1 [compound 789]
44 | < 50 | 17.8 | C#Cc1c(C(F)(F)F)cc2nc(C)n(CCOc3ccc(Cl)cc3-c3cc(C)nc4c(C(=O)O)csc34)c(=O)c2c1C#N [compound 790]
45 | < 50 | 3.59 | Cc1cc(-c2cc(Cl)ccc2OCCn2c(C)nc3cnc(N(C)C)c(C#N)c3c2=O)c2scc(C(=O)O)c2n1 [compound 791]
46 | < 50 | 2.44 | Cc1cc(-c2cc(Cl)ccc2OCCn2c(C)nc3cnc(Cl)c(C#N)c3c2=O)c2scc(C(=O)O)c2n1 [compound 792]
47 | < 50 | 4.81 | CCc1cc(-c2cc(Cl)ccc2OCCn2c(C)nc3cnc(C4CC4)c(C#N)c3c2=O)c2scc(C(=O)O)c2n1 [compound 793]
48 | < 50 | 3.41 | Cc1ccc(-c2cc(Cl)ccc2OCCn2c(C)nc3cnc(C4CC4)c(C#N)c3c2=O)c2scc(C(=O)O)c12 [compound 794]
49 | < 50 | 9.35 | Cc1cc(-c2cc(Cl)ccc2OCCn2c(C)nc3cc(C(F)F)c(N4CC(F)(F)C4)c(C#N)c3c2=O)c2scc(C(=O)O)c2n1 [compound 799]
50 | < 50 | 13.6 | Cc1cc(-c2cc(Cl)ccc2OCCn2c(C)nc3cc(F)c(C4=CCCC4)c(C#N)c3c2=O)c2scc(C(=O)O)c2n1 [compound 805]
51 | < 50 | 3.58 | Cc1nc2cc(CN(C)C)c(OC(F)F)c(C#N)c2c(=O)n1CCOc1ccc(Cl)cc1-c1cccc(C(=O)O)c1 [compound 806]

Reference: patent US11286268B1, “EIF4E-inhibiting compounds and methods” (EFFECTOR THERAPEUTICS, INC., priority 2019, dated 2022)
